ChEMBL document CHEMBL2203069, “Synthesis and structure-activity relationships of a novel series of pyrimidines as potent inhibitors of TBK1/IKKε kinases” (Bioorg Med Chem Lett, 2012)

Tests used:
[1] = biological target: T1, 3-phosphoinositide-dependent protein kinase 1 (Homo sapiens, UniProt O15530); experiment: Inhibition of PDK1 by radiometry
T1 sequence (O15530 whole entry): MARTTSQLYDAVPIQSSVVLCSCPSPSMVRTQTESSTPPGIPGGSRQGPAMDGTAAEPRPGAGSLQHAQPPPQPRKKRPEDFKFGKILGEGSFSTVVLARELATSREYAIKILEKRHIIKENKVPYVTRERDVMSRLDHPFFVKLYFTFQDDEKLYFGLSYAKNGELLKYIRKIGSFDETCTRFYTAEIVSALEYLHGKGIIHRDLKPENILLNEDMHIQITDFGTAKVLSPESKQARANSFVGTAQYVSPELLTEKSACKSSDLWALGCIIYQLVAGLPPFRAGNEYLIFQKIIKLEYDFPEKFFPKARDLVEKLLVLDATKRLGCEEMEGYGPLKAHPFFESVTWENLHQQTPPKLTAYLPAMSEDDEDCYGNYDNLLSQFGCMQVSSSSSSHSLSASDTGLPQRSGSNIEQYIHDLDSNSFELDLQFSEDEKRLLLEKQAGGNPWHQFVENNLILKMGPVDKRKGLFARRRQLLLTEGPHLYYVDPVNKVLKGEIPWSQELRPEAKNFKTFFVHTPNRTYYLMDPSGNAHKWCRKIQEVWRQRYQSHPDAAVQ

[2] = biological target: T2, Serine/threonine-protein kinase TBK1 (Homo sapiens, UniProt Q9UHD2); experiment: Inhibition of TBK1 by radiometry
T2 sequence (Q9UHD2 whole entry): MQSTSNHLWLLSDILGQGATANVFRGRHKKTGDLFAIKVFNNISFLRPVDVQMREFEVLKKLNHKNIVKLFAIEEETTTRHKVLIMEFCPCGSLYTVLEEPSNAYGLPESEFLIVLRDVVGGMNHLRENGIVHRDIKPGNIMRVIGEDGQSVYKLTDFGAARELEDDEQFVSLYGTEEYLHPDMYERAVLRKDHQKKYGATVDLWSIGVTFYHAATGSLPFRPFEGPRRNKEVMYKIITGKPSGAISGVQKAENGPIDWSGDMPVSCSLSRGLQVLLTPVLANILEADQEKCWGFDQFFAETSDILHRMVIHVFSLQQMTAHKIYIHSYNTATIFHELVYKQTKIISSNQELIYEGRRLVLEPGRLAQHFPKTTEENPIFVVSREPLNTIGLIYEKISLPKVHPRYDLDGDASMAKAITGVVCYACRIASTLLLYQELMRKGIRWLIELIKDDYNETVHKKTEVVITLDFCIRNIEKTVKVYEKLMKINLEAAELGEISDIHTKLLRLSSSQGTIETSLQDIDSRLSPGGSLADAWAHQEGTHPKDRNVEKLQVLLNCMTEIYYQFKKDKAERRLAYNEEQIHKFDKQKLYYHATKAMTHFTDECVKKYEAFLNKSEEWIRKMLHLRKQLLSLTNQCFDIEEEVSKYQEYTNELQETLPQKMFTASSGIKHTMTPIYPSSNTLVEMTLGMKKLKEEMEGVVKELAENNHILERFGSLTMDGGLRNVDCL

[3] = Permeability from apical to basolateral side of human Caco2 cells; assay type: ADME, cell-based; details: Caco-2, read-out: permeability
[4] = biological target: T3, Serine/threonine-protein kinase TBK1 (Mus musculus, UniProt Q9WUN2); experiment: Inhibition of TBK1-mediated RANTES release in LPS-stimulated mouse RAW264.7 cells compound incubated for 30 mins prior LPS challenge measured after 6 hrs by ELISA; assay type: cell-based; details: read-out: IC50
T3 sequence (Q9WUN2 whole entry): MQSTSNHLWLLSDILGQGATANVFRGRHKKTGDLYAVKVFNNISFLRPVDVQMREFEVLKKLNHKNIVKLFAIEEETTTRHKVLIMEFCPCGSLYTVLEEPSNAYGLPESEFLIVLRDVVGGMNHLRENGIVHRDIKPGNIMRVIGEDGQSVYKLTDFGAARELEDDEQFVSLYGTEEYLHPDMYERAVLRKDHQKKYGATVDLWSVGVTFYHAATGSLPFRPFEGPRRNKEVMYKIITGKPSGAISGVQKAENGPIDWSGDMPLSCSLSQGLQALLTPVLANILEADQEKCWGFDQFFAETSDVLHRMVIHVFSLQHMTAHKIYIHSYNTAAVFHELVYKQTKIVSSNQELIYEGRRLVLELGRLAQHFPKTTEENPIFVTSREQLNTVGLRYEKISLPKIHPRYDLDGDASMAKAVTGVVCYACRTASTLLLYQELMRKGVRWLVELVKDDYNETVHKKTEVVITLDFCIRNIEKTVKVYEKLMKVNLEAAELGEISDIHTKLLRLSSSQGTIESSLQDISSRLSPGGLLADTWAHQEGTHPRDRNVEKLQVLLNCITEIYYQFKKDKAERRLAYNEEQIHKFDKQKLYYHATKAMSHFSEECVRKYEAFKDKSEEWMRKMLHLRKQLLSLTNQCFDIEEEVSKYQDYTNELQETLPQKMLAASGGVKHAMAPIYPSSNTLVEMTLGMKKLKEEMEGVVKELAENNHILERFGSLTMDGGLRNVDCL

[5] = Metabolic stability in human liver microsomes assessed as compound turnover after 40 mins; assay type: ADME, Microsome; details: read-out: Drug metabolism
[6] = Efflux ratio of permeability from basolateral to apical side to apical to basolateral side in human Caco2 cells; assay type: ADME, cell-based; details: Caco-2
[7] = Metabolic stability in mouse liver microsomes assessed as compound turnover after 30 mins; assay type: ADME, Microsome; details: read-out: Drug metabolism
[8] = Inhibition of AMPK
[9] = biological target: MAP/microtubule affinity-regulating kinase 3 (Homo sapiens, UniProt P27448); experiment: Inhibition of MARK3
MAP/microtubule affinity-regulating kinase 3, sequence (P27448 whole entry): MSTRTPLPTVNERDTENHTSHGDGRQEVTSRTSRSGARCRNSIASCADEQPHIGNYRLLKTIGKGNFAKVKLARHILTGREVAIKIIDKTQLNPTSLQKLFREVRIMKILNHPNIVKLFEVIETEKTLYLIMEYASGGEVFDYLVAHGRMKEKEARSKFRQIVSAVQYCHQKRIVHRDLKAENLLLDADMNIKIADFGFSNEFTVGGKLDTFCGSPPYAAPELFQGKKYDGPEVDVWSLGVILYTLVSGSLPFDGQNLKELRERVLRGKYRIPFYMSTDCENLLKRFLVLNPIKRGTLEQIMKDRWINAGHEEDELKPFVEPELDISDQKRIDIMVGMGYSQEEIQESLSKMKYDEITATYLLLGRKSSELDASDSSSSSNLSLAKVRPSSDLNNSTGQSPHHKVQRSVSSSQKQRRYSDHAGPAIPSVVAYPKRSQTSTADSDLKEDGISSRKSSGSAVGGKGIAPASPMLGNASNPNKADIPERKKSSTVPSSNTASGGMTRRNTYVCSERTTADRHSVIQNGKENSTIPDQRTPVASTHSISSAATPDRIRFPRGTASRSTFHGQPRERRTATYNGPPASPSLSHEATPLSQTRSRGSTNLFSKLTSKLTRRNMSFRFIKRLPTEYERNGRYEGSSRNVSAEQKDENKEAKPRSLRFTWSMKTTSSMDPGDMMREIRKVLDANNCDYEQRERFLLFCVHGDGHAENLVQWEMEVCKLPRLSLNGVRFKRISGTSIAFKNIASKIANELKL

[10] = biological target: T4, Inhibitor of nuclear factor kappa-B kinase subunit epsilon (Homo sapiens, UniProt Q14164); experiment: Inhibition of IKKepsilon
T4 sequence (Q14164 whole entry): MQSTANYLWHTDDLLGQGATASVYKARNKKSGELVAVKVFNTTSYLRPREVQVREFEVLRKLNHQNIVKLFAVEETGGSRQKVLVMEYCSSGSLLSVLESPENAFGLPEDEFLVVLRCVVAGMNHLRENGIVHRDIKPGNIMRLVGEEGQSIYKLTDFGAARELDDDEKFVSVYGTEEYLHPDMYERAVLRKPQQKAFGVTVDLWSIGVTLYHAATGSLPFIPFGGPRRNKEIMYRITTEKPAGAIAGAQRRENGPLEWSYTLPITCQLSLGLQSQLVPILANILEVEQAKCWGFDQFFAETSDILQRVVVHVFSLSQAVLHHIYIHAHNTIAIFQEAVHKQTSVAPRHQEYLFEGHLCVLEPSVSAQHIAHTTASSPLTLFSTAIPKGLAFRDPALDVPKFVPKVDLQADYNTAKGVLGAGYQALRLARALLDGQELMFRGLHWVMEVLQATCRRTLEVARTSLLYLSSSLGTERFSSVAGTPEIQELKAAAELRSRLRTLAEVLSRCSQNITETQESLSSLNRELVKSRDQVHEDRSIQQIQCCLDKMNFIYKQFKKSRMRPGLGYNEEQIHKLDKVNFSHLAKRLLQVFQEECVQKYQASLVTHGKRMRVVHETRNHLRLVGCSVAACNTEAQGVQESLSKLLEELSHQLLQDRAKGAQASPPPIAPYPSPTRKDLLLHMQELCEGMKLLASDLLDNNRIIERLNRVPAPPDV

[11] = biological target: Aurora kinase B (Homo sapiens, UniProt Q96GD4); experiment: Inhibition of Aurora B
Aurora kinase B, sequence (Q96GD4 whole entry): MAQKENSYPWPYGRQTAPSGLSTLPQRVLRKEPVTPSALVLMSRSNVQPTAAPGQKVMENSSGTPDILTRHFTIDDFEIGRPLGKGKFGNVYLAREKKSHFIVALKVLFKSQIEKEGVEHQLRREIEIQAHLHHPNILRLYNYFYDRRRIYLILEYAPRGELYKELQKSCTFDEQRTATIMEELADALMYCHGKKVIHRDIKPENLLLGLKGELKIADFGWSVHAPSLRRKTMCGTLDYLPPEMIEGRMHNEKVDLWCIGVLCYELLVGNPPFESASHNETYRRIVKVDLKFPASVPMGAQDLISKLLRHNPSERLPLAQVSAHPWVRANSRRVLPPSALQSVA

[12] = biological target: MAP kinase-interacting serine/threonine-protein kinase 1 (Homo sapiens, UniProt Q9BUB5); experiment: Inhibition of MNK1
MAP kinase-interacting serine/threonine-protein kinase 1, sequence (Q9BUB5 whole entry): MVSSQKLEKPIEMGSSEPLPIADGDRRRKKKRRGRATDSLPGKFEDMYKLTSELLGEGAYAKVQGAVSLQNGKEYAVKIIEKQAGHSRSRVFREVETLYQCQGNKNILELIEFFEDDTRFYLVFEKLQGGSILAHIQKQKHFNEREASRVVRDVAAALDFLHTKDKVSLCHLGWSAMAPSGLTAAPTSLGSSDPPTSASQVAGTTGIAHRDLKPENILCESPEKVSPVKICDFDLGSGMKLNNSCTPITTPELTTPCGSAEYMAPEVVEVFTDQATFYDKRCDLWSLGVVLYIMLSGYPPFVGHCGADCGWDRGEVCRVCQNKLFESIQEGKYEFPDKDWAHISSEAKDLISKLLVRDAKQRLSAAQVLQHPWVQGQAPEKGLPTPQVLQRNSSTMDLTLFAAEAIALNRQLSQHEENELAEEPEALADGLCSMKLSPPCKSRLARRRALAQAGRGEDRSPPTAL

[13] = biological target: Cyclin-dependent kinase 2 (Homo sapiens, UniProt P24941); experiment: Inhibition of CDK2
[14] = Inhibition of VEGFR
[15] = biological target: T5, Serine/threonine-protein kinase BRSK2 (Homo sapiens, UniProt Q8IWQ3); experiment: Inhibition of BRSK2
T5 sequence (Q8IWQ3 whole entry): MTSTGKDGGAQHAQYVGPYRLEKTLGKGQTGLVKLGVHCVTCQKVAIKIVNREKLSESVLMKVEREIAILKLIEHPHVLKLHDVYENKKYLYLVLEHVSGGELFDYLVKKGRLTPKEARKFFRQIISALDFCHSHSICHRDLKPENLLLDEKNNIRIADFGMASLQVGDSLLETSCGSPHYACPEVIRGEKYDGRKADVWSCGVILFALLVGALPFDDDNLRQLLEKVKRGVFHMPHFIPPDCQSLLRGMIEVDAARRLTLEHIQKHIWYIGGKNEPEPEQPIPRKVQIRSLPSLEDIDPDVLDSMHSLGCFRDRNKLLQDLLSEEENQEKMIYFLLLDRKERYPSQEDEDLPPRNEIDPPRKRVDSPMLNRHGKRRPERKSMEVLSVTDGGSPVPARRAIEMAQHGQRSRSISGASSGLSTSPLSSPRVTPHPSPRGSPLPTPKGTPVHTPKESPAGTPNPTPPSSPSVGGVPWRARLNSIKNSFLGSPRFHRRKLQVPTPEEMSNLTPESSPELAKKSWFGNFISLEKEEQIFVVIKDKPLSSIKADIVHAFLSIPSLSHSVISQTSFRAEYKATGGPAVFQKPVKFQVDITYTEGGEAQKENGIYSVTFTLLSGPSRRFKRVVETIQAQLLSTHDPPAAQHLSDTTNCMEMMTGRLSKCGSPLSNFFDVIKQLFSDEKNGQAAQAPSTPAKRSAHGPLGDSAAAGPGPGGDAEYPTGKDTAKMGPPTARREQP

SMILES	IC50 [2] [nM]	Papp A→B [3] [×10⁻⁶ cm/s]	IC50 [4] [nM]	metabolised at 40 min [5] [%]	efflux ratio [6]	metabolised at 0.5 h [7] [%]	other results
O=C(NCCCNc1nc(Nc2cccc(F)c2)ncc1Br)C1CCCC1	8						IC50 [1]: 220 nM
O=C(NCCCNc1nc(Nc2ccc(-n3cncn3)cc2)ncc1C1CC1)C1CCC1	3	10	150	23	3	35	
CC(C)N1CCC(n2cc(Nc3ncc(C4CC4)c(NCCCNC(=O)C4CCC4)n3)cn2)CC1	7	1.4	3000	24	16	42	
O=C(NCCCNc1nc(Nc2cccc(F)c2)ncc1C1CC1)C1CCC1	8		1300	80		74	IC50 [1]: 580 nM
O=C(NCCCNc1nc(Nc2ccc(CN3CCCCC3)nc2)ncc1C1CC1)C1CCC1	9	0.1	1200		780		
O=C(NCCCNc1nc(Nc2ccc(N3CCOCC3)nc2)ncc1C1CC1)C1CCC1	15		490	15		92	
O=C(NCCCNc1nc(Nc2cnn(C3CCOCC3)c2)ncc1C1CC1)C1CCC1	2		280	25		33	
O=C(NCCCNc1nc(Nc2ccc3c(c2)CN(C2CC2)CC3)ncc1C1CC1)C1CCC1	7		570	91		86	
CCn1cc(Nc2ncc(C3CC3)c(NCCCNC(=O)C3CCC3)n2)cn1	7		140	37		54	
O=C(NCCCNc1nc(Nc2ccc(N3CCOCC3)cc2)ncc1C1CC1)C1CCC1	6	34	58	18	1	53	IC50 [8]: 550 nM; IC50 [9]: 12 nM; IC50 [10]: 30 nM; IC50 [11]: 700 nM; IC50 [12]: 19000 nM; IC50 [13]: 630 nM; IC50 [14]: 3600 nM; IC50 [15]: 1900 nM
O=C(NCCCNc1nc(Nc2cccc(F)c2)ncc1Br)c1cccs1	9						IC50 [1]: 130 nM
O=C(NCCCNc1nc(Nc2cccc(F)c2)ncc1Br)C1CCC1							IC50 [1]: 68 nM
CN1CCC(c2ccc(Nc3ncc(C4CC4)c(NCCCNC(=O)C4CCC4)n3)cc2)CC1	8		660	23		30	
CC(C)n1cc(Nc2ncc(C3CC3)c(NCCCNC(=O)C3CCC3)n2)cn1	4		81	61		41	
CN(C)Cc1ccc(Nc2ncc(C3CC3)c(NCCCNC(=O)C3CCC3)n2)cc1	6	1	550		56		
